Data taken from patent publication US9695155B2, “Herbicidal substituted pyrimidinyloxy benzene compounds” (E. I. DU PONT DE NEMOURS AND COMPANY, priority 2013, dated 2017).

What was measured:
[1] = system: Italian ryegrass; test: Test C preemergence; format: in vivo, Lolium multiflorum; conditions: for Ryegrass, Italian plant response rating: preemergence; for Plant response rating, Ryegrass, Italian: Preemergence, 31 g ai/ha, scale 0 to 100, 0 no effect, 100 complete control
Method in brief: (§1)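 Greenhouse herbicide screen. Pre: seeded loam/sand, sprayed at planting. Post: 1–4 leaf plants (2–18 cm) in peat-based mix. Formulation: solvent mixture + surfactant, non-phytotoxic. Readout: visual % control vs untreated, 13–15 d; dash = not tested.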

[2] = system: ragweed; test: Test C preemergence; format: in vivo, Ambrosia elatior; conditions: for Ragweed plant response rating: preemergence; for Plant response rating, Ragweed: Preemergence, 31 g ai/ha, scale 0 to 100, 0 no effect, 100 complete control
Method in brief: as §1

[3] = system: soybean; test: Test C preemergence; format: in vivo, Glycine max; conditions: for Soybean plant response rating: preemergence; for Plant response rating, Soybean: Preemergence, 31 g ai/ha, scale 0 to 100, 0 no effect, 100 complete control
From the text: (§2) Seeds of plant species selected from blackgrass (Alopecurus myosuroides), Italian ryegrass (Lolium multiflorum), wheat, winter (winter wheat, Triticum aestivum), galium (catchweed bedstraw, Galium aparine), corn (Zea mays), large (Lg) crabgrass (Digitaria sanguinalis), giant foxtail (Setaria faberii), johnsongrass (Sorghum halepense), lambsquarters (Chenopodium album), morningglory (Ipomoea coccinea), yellow nutsedge (Cyperus esculentus), pigweed (Amaranthus retroflexus), ragweed (common ragweed, Ambrosia elatior), soybean (Glycine max), barnyardgrass (Echinochloa crus-galli), oilseed rape (Brassica napus), waterhemp (common waterhemp, Amaranthus rudis), kochia (Kochia scoparia), wild oat (Avena fatua), surinam grass (Brachiaria decumbens), foxtail, green (green foxtail, Setaria viridis), goosegrass (Eleusine indica), bromegrass, downy (downy bromegrass, Bromus tectorum), nightshade (eastern black nightshade, Solanum ptycanthum), cocklebur (common cocklebur, Xanthium strumarium), cupgrass, woolly (woolly cupgrass, Eriochloa villosa), bermudagrass (Cynodon dactylon), sunflower, (common oilseed sunflower, Helianthus annuus), Russian thistle (Salsola kali), and velvetleaf (Abutilon theophrasti) were planted into a blend of loam soil and sand and treated preemergence with test chemicals formulated in a non-phytotoxic solvent mixture which included a surfactant.
(§3) At the same time, plants selected from these crop and weed species and also barley, winter (winter barley, Hordeum vulgare), windgrass (Apera spica-venti), chickweed (common chickweed, Stellaria media), deadnettle (henbit deadnettle, Lamium amplexicaule), and canarygrass (littleseed canarygrass, Phalaris minor) were planted in pots containing Redi-Earth® planting medium (Scotts Company, 14111 Scottslawn Road, Marysville, Ohio 43041) comprising spaghnum peat moss, vermiculite, wetting agent and starter nutrients and treated with postemergence applications of test chemicals formulated in the same manner. Plants ranged in height from 2 to 18 cm (1- to 4-leaf stage) for postemergence treatments. Treated plants and controls were maintained in a greenhouse for 13 to 15 days, after which time all species were compared to controls and visually evaluated. Plant response ratings, summarized in Table C, are based on a scale of 0 to 100 where 0 is no effect and 100 is complete control. A dash (-) response means no test result.

[4] = system: yellow nutsedge; test: Test C preemergence; format: in vivo, Cyperus esculentus; conditions: for Nutsedge, Yellow plant response rating: preemergence; for Plant response rating, Nutsedge, Yellow: Preemergence, 31 g ai/ha, scale 0 to 100, 0 no effect, 100 complete control
From the text: as §2, §3

[5] = system: large (Lg) crabgrass; test: Test A preemergence; format: in vivo, Digitaria sanguinalis; conditions: for Plant response rating, Crabgrass, Large: 125 g ai/ha; for Crabgrass, Large plant response rating: 500 g ai/ha
Method in brief: (§4)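 Compounds in non-phytotoxic solvent with surfactant applied as soil spray preemergence, or postemergence to plants 2-10 cm at one- to two-leaf stage, in loam/sand. After approximately 10 days in greenhouse, injury rated visually versus untreated controls, 0 (no effect) to 100 (complete control).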

[6] = system: blackgrass; test: Test C preemergence; format: in vivo, Alopecurus myosuroides; conditions: for Blackgrass plant response rating: preemergence; for Plant response rating, Blackgrass: Preemergence, 31 g ai/ha, scale 0 to 100, 0 no effect, 100 complete control
Method in brief: as §1

[7] = system: pigweed; test: Test C preemergence; format: in vivo, Amaranthus retroflexus; conditions: for Pigweed plant response rating: preemergence; for Plant response rating, Pigweed: Preemergence, 31 g ai/ha, scale 0 to 100, 0 no effect, 100 complete control
From the text: as §2, §3

[8] = system: morningglory; test: Test C preemergence; format: in vivo, Ipomoea coccinea; conditions: for Morningglory plant response rating: preemergence; for Plant response rating, Morningglory: Preemergence, 31 g ai/ha, scale 0 to 100, 0 no effect, 100 complete control
Method in brief: as §1

[9] = system: pigweed; test: Test A preemergence; format: in vivo, Amaranthus retroflexus; conditions: for Pigweed plant response rating: 500 g ai/ha
Method in brief: as §4

[10] = 16 g ai/ha, scale 0 to 100 (0 no effect, 100 complete control)
[11] = 62 g ai/ha, scale 0 (no effect) to 100 (complete control)
[12] = 125 g ai/ha, scale 0 (no effect) to 100 (complete control)
[13] = 0 to 100 scale where 0 is no effect and 100 is complete control
[14] = 0 to 100 scale, 0 no effect, 100 complete control, approx. 10 days
[15] = 125 g ai/ha, 0 to 100 scale where 0 is no effect and 100 is complete control

SMILES	Ryegrass, Italian plant response rating [1, 10]	Ryegrass, Italian plant response rating [1, 11]	Ryegrass, Italian plant response rating [1, 12]	Ragweed plant response rating [2, 10]	Ragweed plant response rating [2, 11]	Ragweed plant response rating [2, 12]	Soybean plant response rating [3, 10]	Soybean plant response rating [3, 11]	Soybean plant response rating [3, 12]	Nutsedge, Yellow plant response rating [4, 10]	Nutsedge, Yellow plant response rating [4, 11]	Nutsedge, Yellow plant response rating [4, 12]	Blackgrass plant response rating [6, 10]	Blackgrass plant response rating [6, 11]	Blackgrass plant response rating [6, 12]	Plant response rating, Blackgrass [6]	Pigweed plant response rating [7, 10]	Pigweed plant response rating [7, 11]	Pigweed plant response rating [7, 12]	Morningglory plant response rating [8, 10]	also measured
Fc1cnc(Oc2cccc(C(F)F)c2-n2cc(Br)cn2)nc1 [Compound 112]	0	5	30	0	35	100	10	50	95	0	15	40	0	40	95	30	100	100	100	5	Plant response rating, Ryegrass, Italian [1]: 0; Plant response rating, Ragweed [2]: 0; Plant response rating, Soybean [3]: 35; Plant response rating, Nutsedge, Yellow [4]: 5; Plant response rating, Crabgrass, Large [5, 13]: 100; Crabgrass, Large plant response rating [5, 14]: 100; Plant response rating, Pigweed [7]: 100; Morningglory plant response rating [8, 11]: 65; Morningglory plant response rating [8, 12]: 75; Plant response rating, Morningglory [8]: 15; Plant response rating, Pigweed [9, 15]: 100; Pigweed plant response rating [9, 14]: 100
Fc1cccc(Oc2ncc(Cl)cn2)c1-n1cc(I)cn1 [Compound 179]	0	30	70	0	0	10	0	45	65	0	10	15	0	40	90	50	100	100	100	10	Plant response rating, Crabgrass, Large [5, 13]: 100; Crabgrass, Large plant response rating [5, 13]: 100; Morningglory plant response rating [8, 11]: 35; Morningglory plant response rating [8, 12]: 90; Pigweed plant response rating (0 to 100 scale) ([9]; 125 g ai/ha): 100; Pigweed plant response rating [9, 13]: 100
FCc1cccc(Oc2ncc(F)cn2)c1-n1cc(C(F)(F)F)cn1 [Compound 118]	0	70	100	70	100	100	60	90	95	0	25	70	35	90	95	80	90	100	100	40	Plant response rating, Ryegrass, Italian [1]: 40; Plant response rating, Ragweed [2]: 100; Plant response rating, Soybean [3]: 75; Plant response rating, Nutsedge, Yellow [4]: 5; Plant response rating, Pigweed [7]: 100; Morningglory plant response rating [8, 11]: 100; Morningglory plant response rating [8, 12]: 100; Plant response rating, Morningglory [8]: 75; Pigweed plant response rating (0 to 100 scale) ([9]; 31 g ai/ha): 100; Plant response rating, Pigweed [9, 15]: 100
N#Cc1cnn(-c2c(CF)cccc2Oc2ncc(F)cn2)c1 [Compound 151]	0	35	45	55	85	100	35	85	95	0	5	25	0	10	90	0	100	100	100	0	Morningglory plant response rating [8, 11]: 10; Morningglory plant response rating [8, 12]: 25; Plant response rating, Pigweed ([9]; 31 g ai/ha, 0 to 100 scale where 0 is no effect and 100 is complete control, visual, approximately 10 days): 90; Plant response rating, Pigweed [9, 15]: 90
COc1cnn(-c2c(C#N)cccc2Oc2ncc(Cl)cn2)c1 [Compound 137]	0	0	0	45	80	95	10	80	85	0	5	10	0	5	10	0	75	90	100	25	Morningglory plant response rating [8, 11]: 45; Morningglory plant response rating [8, 12]: 90; Plant response rating, Pigweed [9, 15]: 90; Pigweed plant response rating [9, 13]: 100
